Active and inactive are the calls of the source. No cut-off for these calls is given here.
Tests used:
[1] = system: Burkholderia pseudomallei; test: Antibacterial activity against Burkholderia pseudomallei 1026b infected in BALB/c mouse assessed as decrease in bacterial count in spleen at 25 mg/kg, ip administered 6 hrs postinfection at 12 hrs interval for 3 days measured on day 65 in presence of murine recombinant IFN-gamma; assay type: functional, organism-based; set-up: dose 25 mg/kg
[2] = system: Burkholderia pseudomallei; test: Antibacterial activity against Burkholderia pseudomallei 1026b infected in BALB/c mouse assessed as increase survival rate at 25 mg/kg, ip administered 6 hrs postinfection at 12 hrs interval for 3 days measured on day 20; assay type: functional, organism-based; set-up: dose 25 mg/kg
[3] = system: Burkholderia pseudomallei; test: Antibacterial activity against Burkholderia pseudomallei 1026b infected in BALB/c mouse assessed as protection against bacterial infection at 25 mg/kg, ip administered as single dose 6 hrs postinfection; assay type: functional; details: route intraperitoneal
[4] = system: Burkholderia pseudomallei; test: Antibacterial activity against Burkholderia pseudomallei 1026b infected in BALB/c mouse assessed as increase in survival rate at 25 mg/kg, ip administered 6 hrs postinfection at 12 hrs interval for 3 days measured on day 60 in presence of murine recombinant IFN-gamma; assay type: functional, organism-based; set-up: dose 25 mg/kg
[5] = system: Burkholderia pseudomallei; test: Antibacterial activity against Burkholderia pseudomallei 1026b infected in BALB/c mouse assessed as survival rate at 25 mg/kg, ip administered 6 hrs postinfection at 12 hrs interval for 3 days measured on day 20; assay type: functional; details: route intraperitoneal
[6] = system: Burkholderia pseudomallei; test: Antibacterial activity against Burkholderia pseudomallei 1026b infected in mouse AMJ.2 cells assessed as intracellular bacterial count at 10 ug/ml measured on 24 hrs postinfection by serial dilution plating technique (reference value: 2 X 10^4 CFU/ml); assay type: functional
[7] = system: Burkholderia pseudomallei; test: Antibacterial activity against Burkholderia pseudomallei 1026b infected in mouse AMJ.2 cells assessed as decrease in intracellular bacterial growth at 10 ug/ml after 24 hrs by serial dilution plating technique in presence of 1 U/ml murine recombinant IFN-gamma; assay type: functional, organism-based
[8] = system: Burkholderia pseudomallei; test: Antibacterial activity against Burkholderia pseudomallei 1026b infected in mouse AMJ.2 cells assessed as decrease in intracellular bacterial growth at 1 ug/ml after 24 hrs by serial dilution plating technique in presence of 100 U/ml murine recombinant IFN-gamma; assay type: functional, organism-based
[9] = system: Burkholderia pseudomallei; test: Antibacterial activity against Burkholderia pseudomallei 1026b infected in mouse AMJ.2 cells assessed as inhibition of bacterial replication at <= 10 ug/ml after 24 hrs by serial dilution plating technique; assay type: functional, organism-based

Structure (SMILES): CC(C)(O/N=C(\C(=O)N[C@@H]1C(=O)N2C(C(=O)[O-])=C(C[n+]3ccccc3)CS[C@H]12)c1csc(N)n1)C(=O)O [CEFTAZIDIME]
- inhibition [1]: Active
- Activity [2]: inactive
- Activity [3]: 20%
- Activity [4]: Active
- Activity [5]: 10%
- CFU [6]: >1 ×10⁶ /ml
- inhibition [7]: Active
- inhibition [8]: Active
- inhibition [9]: inactive
